For data set [1], the target named is T1, rat calcitonin (a) receptor (Rattus norvegicus, UniProt P32214).
T1 construct: expressed in transfected cells; host or cells: BHK tk'ts 13 (transient, FuGENE 6)
T1 sequence (P32214 25-479 isoform P32214-2 limits assumed): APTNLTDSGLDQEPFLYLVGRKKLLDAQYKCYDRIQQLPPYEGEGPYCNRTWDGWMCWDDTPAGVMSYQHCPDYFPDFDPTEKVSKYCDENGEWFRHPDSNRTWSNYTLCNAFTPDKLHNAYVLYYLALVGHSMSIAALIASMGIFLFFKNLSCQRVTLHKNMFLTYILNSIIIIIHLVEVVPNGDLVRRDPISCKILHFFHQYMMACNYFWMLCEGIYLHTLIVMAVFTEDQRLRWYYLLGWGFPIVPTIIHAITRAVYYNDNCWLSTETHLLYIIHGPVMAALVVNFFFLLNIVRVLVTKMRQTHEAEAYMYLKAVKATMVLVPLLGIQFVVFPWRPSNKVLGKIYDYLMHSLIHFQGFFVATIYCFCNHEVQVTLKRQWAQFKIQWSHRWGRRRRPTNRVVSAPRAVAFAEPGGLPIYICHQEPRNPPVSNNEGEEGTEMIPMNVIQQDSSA
The data set is described as follows: Assay (II)b functional assay, rat calcitonin receptor (cAMP FlashPlate). Format: cell-based. As to conditions: Table 11, read-out: CTa receptor rat EC50. The text has this: Assay (II)b—Rat Calcitonin and Rat Amylin Receptor Assays
Activation of calcitonin and amylin (coexpression of calcitonin receptor and receptor activity modifying proteins (RAMP)) receptors lead to increased intracellular concentrations of cAMP. In order to quantify the cAMP levels in transiently transfected cells the Adenylyl Cyclase Activation FlashPlate® Assay from Perkin Elmer was used. The basic principle of the FlashPlate® Assay is a competition between radioactive and non-radioactive cAMP generated by the cells for a fixed number of binding sites.
Construction of Rat Calcitonin(a)- and Rat Amylin 3(a)-Receptor Cells.
BHK tk'ts 13 cells were transiently transfected with either rat calcitonin (a) receptor or amylin 3 (a) receptor (rat calcitonin(a) receptor+rat RAMP3) using FuGENE® 6 (Roche), according to the manufacturers recommendations.
24 hours after transient transfection the cells (rat calcitonin(a)- or rat amylin 3(a)-receptor cells) were added (100.000 cells/well) to the 96 well FlashPlates® with samples or standard in FlashPlate stimulation buffer with IBMX and incubated for 30 min. Detection mix was created according to manufacturers protocol and scintillation measured after 3 h of incubation on TopCounter™ (Packard).

Data set [2] is described as follows: Assay (III) ThT fibrillation assay for physical stability. Format: physicochemical. The essentials:
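Freshly prepared, pH-adjusted formulations with 1 μM ThT incubated at 37 °C under 960 rpm orbital shaking (1 mm), fluorescence (ex 444, em 485 nm) read every 20 min. […] Peptide content before and after measured by reverse-phase HPLC against pramlintide standard.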

Molecules are shown by their SMILES. Starred links: 1 amine or outer side, 2 acyl side, 3 side chain; linkers in the order of their positions; H or OH if unused. Positions of bridges follow the written chain, without caps; N, C: chain ends. Residues, ends and D or L forms follow the SMILES beside them. Groups on a side chain read outwards from the residue. *: point of attachment. C18 diacid = O=C(O)CCCCCCCCCCCCCCCCC(=O)*; γGlu = O=C(O)[C@H](CCC(=O)[*:2])N[*:1]; AEEA = NCCOCCOCC(=O)O

What is called EC50 is the concentration that produces a half-maximal response.

In the case of `CC[C@H](C)[C@H](NC(=O)[C@@H]1CCCN1C(=O)CNC(=O)[C@H](Cc1ccccc1)NC(=O)[C@H](CC(N)=O)NC(=O)[C@H](CCCCNC(=O)COCCOCCNC(=O)COCCOCCNC(=O)CC[C@H](NC(=O)CCCCCCCCCCCCCCCCC(=O)O)C(=O)O)NC(=O)[C@H](CO)NC(=O)[C@H](CO)NC(=O)[C@H](Cc1c[nH]cn1)NC(=O)[C@H](Cc1c[nH]cn1)NC(=O)[C@H](CC(C)C)NC(=O)[C@H](Cc1ccccc1)NC(=O)[C@H](CCC(=O)O)NC(=O)[C@H](C)NC(=O)[C@H](CC(C)C)NC(=O)[C@H](CCCNC(=N)N)NC(=O)[C@H](CCC(N)=O)NC(=O)[C@@H](NC(=O)[C@H](C)NC(=O)[C@@H]1CSSC[C@H](NC(=O)[C@@H](N)CCCCN)C(=O)N[C@@H](CC(N)=O)C(=O)N[C@@H]([C@@H](C)O)C(=O)N[C@@H](C)C(=O)N[C@@H]([C@@H](C)O)C(=O)N1)[C@@H](C)O)C(=O)N[C@@H](CC(C)C)C(=O)N1CCC[C@H]1C(=O)N1CCC[C@H]1C(=O)N[C@H](C(=O)N[C@@H](CC(N)=O)C(=O)N[C@H](C(=O)NCC(=O)N[C@@H](CO)C(=O)N[C@@H](CCC(=O)O)C(=O)N[C@H](C(=O)N[C@@H](Cc1ccc(O)cc1)C(N)=O)[C@@H](C)O)C(C)C)[C@@H](C)O` [Example 74, N-epsilon21-[2-(2-{2-[2-(2-{2-[(S)-4-Carboxy-4-(17-carboxyheptadecanoylamino)butyrylamino]ethoxy}ethoxy)acetylamino]ethoxy}ethoxy)acetyl]-[Glu14,His17,Lys21,Glu35]-pramlintide] (H-KCNTATCATQRLAEFLHHSSK([AEEA-AEEA-γGlu-C18 diacid])NFGPILPPTNVGSETY-NH2; disulfide 2-7 (inferred); N-terminus and C-terminus assumed), the EC50 in data set [1] worked out at 2.06 nM. The “ThT pH 4.0 lag time (physical stability in fibrillogenesis assay)” value in data set [2] (pH 4.0) was more than 45 h. Further, the “ThT pH 4.0 lag time” value in data set [2] (pH 4.0, ThT fibrillation assay) is on record as more than 45 h.

Values taken from patent US8741836B2, “Polypeptides” (Novo Nordisk A/S, priority 2011, dated 2014).
